The subject of data set [1] is serum cytokines. Briefly: Dexamethasone scheduling with glofitamab: serum cytokines by multiplex assay. In kind it is in vivo, humanized BRGS-CD47 mice. The settings on record: for Serum cytokine levels 4 hours after the first glofitamab injection: glofitamab 0.15 mg/kg i.v., dexamethasone co-administered in Groups C-G (2-6 mg/kg orally). As to the method: Group B animals (n=14) were injected intravenously with glofitamab only (0.15 mg/kg at first and 0.5 mg/kg at subsequent injections in 200 μL of histidine buffer) once weekly for 5 weeks.
Serum was prepared by centrifugation.
Serum was collected and stored at −20° C. Serum samples were diluted 1:10 and used for the analysis of different cytokines/chemokines using the Bio-Plex Pro™ Human Chemokine Panel, 40-Plex system (Catalog No. 171AK99MR2; Bio-Rad; Hercules, CA), following the manufacturer's instructions.

A further data set concerns OCI-Ly18 tumor. Briefly: Dexamethasone scheduling with glofitamab, gemcitabine and oxaliplatin: tumor growth. In kind it is in vivo, humanized BRGS-CD47 mice. Here is the method: Human OCI-Ly18 (Diffuse Large B-Cell Lymphoma; DLBCL) cells were originally obtained from ATCC and subsequently expanded and deposited in the Roche Glycart internal cell bank. Cells were cultured in RPMI medium containing 10% fetal calf serum (FCS) and 1× GLUTAMAX®. The cells were maintained at 37° C. in a water-saturated atmosphere with 5% CO2. A 50 μL cell suspension (5×10^6 OCI-Ly18 cells) mixed with 50 μL Matrigel was injected subcutaneously into the flank of anesthetized mice using a 22G to 30G needle. […] Health monitoring was performed regularly. At the appropriate time, mice were injected subcutaneously with tumor cells as described and treated with the compounds or histidine buffer (Vehicle; Group A) when tumor size reached approximately 200 mm^3 (Day 7). […] Gemcitabine and oxaliplatin were injected intraperitoneally (i.p.), glofitamab intravenously (i.v.), and dexamethasone was administered via oral gavage. Groups A-D received no dexamethasone: • Group A: vehicle (control group). • Group B: glofitamab monotherapy • Group C: gemcitabine and oxaliplatin. • Group D: glofitamab, gemcitabine and oxaliplatin. […] [table] All mice were injected with the appropriate solutions. […] Subsequent combination treatments were carried out concomitantly. To obtain the proper amount of compounds per injection volume, the stock solutions (Table 20) were diluted with histidine buffer when necessary. Tumor growth was measured three times weekly using a caliper and tumor volume was calculated as followed: The study was terminated at day 60 after a total of 7 cycles of treatment.

For data set [2] the following is noted: in vivo.
For data set [3], the system named is serum cytokines. The settings on record: day 10.
Procedure: Cytokine measurement was carried out with the Luminex™ FLEXMAP 3D™ system using Bio-Plex Pro Human Cytokine Assay according to the manufacturer's instruction.

“Also recorded” adds a separate entry of the source.

Turning to “glofitamab: anti-CD20/anti-CD3 bispecific antibody, 2:1 configuration; CAS 2229047-91-8”, in the data set on serum cytokines [1] (0.5 mg/kg, much lower than after the first cycle), the “Serum cytokine levels after the second glofitamab injection” value was “did not show an increase in cytokine levels”. The “Serum cytokine levels 4 hours after the first glofitamab injection” value in the data set on serum cytokines [1] is “strong cytokine release”. Moreover, the “Serum cytokine levels 28 hours after the first glofitamab injection” value with serum cytokines [1] (glofitamab monotherapy (Group B)) is on record as “higher cytokine levels”. The “Tumor growth (tumor volume) up to day 60” value in the data set on OCI-Ly18 tumor (7 weekly cycles, glofitamab 0.15/0.5 mg/kg i.v., gemcitabine/oxaliplatin 50/3 mg/kg i.p., no dexamethasone (Groups B-D)) is “initially elicited a robust inhibition of tumor growth, which was subsequently followed by tumor recurrence in all treated mice”. Besides, the “Pharmacokinetics on co-administration with gemcitabine or oxaliplatin” value in data set [2] is recorded as “not affected”.
`C[C@@H]1C[C@H]2[C@@H]3CCC4=CC(=O)C=C[C@]4(C)[C@@]3(F)[C@@H](O)C[C@]2(C)[C@@]1(O)C(=O)COP(=O)(O)O` [dexamethasone, Dexamethasone sodium phosphate]: in the data set with serum cytokines [1] (1 or 2 dexamethasone doses prior to glofitamab only (Groups C and E)), the “Serum cytokine levels 28 hours after the first glofitamab injection vs glofitamab only” value was “No difference in cytokine levels”. In the data set on serum cytokines [1] (24-hour pre-glofitamab administration), the “IL-6 and IL-10 levels with additional dexamethasone premedication dose” value is “reduced IL-6, and to some extent IL-10 levels, at the early time point, with no mitigation capacity at the later time point”. In addition, the “IL-6 with dexamethasone post treatment dose” value in the data set with serum cytokines [1] (24 hours post-glofitamab administration, 28 hours post-glofitamab time point) is recorded as “mitigated IL-6 at the later time point”. Also, the “Levels of some cytokines (e.g., GM-CSF), second dexamethasone dose prior to glofitamab vs only 1 dose” value in the data set on serum cytokines [1] (Groups D-G, 4 hours after first glofitamab injection) is reported as “further reduced the levels of some cytokines”. For the same compound, the “Serum cytokine levels 28 hours after the first glofitamab injection” value in the data set with serum cytokines [1] (dexamethasone prior to and after glofitamab injection (Groups D and F), mainly IL-6, MIP1β, MIP1α, TNFα reduced) is reported as “effectively mitigated cytokine levels for an extended duration; also recorded: very low cytokine levels”. Further, the “Serum cytokine levels 4 hours after the first glofitamab injection” value in the data set on serum cytokines [1] is given as “significantly reduced cytokine levels”. Further, the “Anti-tumor effect of glofitamab + gemcitabine + oxaliplatin with added dexamethasone” value with OCI-Ly18 tumor (dexamethasone 4 mg/kg p.o., Groups E-H, correlated with frequency of dexamethasone administration) is given as “improvement in anti-tumor effects”. The “Anti-tumor effect vs CD20-TCB and chemotherapy without dexamethasone” value with OCI-Ly18 tumor (dexamethasone 4 mg/kg p.o., Groups G and H (most frequent injections), study termination) is recorded as “statistically significant better anti-tumor effects”. In the data set on serum cytokines [3] (Groups F and H), the “Serum IFN-γ and IL-2” value is given as “did not show as strong a reduction”; the “Serum MCP-1 and IL-8” value was “statistically reduced”. In the data set on serum cytokines [3] (additional dexamethasone injection 24 hours post glofitamab (Groups F and H)), the “CRS-related serum cytokines, such as IL-6, vs glofitamab monotherapy group” value was “significant reduction”.

Source of the values: patent US20250333530A1 (Hoffmann-La Roche Inc., priority 2024, published 2025).
